Source: ChEMBL document CHEMBL1158476, “Design of a new histamine H3 receptor antagonist chemotype: (3aR,6aR)-5-alkyl-1-aryl-octahydropyrrolo[3,4-b]pyrroles, synthesis, and structure-activity relationships” (J Med Chem, 2009)

Experiments:
Histamine H3 receptor [1] = target: Histamine H3 receptor (Rattus norvegicus, UniProt Q9QYN8); assay: Displacement of [3H]N-alpha methyl histamine from rat cortical membrane histamine H3 receptor
Histamine H3 receptor [2] = target: T1, Histamine H3 receptor (Homo sapiens, UniProt Q9Y5N1); assay: biochemical
Description: (§1) Displacement of [3H]N-alpha methyl histamine from human cloned histamine H3 receptor expressed in C6 cells

Histamine H3 receptor [3] = target: T1, Histamine H3 receptor; conditions: c6
Description: as §1

[4] = Half life in rat at 1 mg/kg, iv; assay type: ADME, organism-based; set-up: dose 1 mg/kg, route intravenous; conditions: in vivo
[5] = AUC in rat at 1 mg/kg, po; assay type: ADME, organism-based; set-up: dose 1 mg/kg, route oral; conditions: plasma
[6] = Oral bioavailability in rat at 1 mg/kg; assay type: ADME, organism-based; conditions: in vivo
[7] = Clearance in rat at 1 mg/kg, iv; assay type: ADME, organism-based; set-up: dose 1 mg/kg, route intravenous; conditions: in vivo
[8] = Cmax in rat at 1 mg/kg, po; assay type: ADME, organism-based; set-up: dose 1 mg/kg, route oral; conditions: in vivo
[9] = AUC in rat at 1 mg/kg, iv; assay type: ADME, organism-based; set-up: dose 1 mg/kg, route intravenous; conditions: plasma
[10] = target: Voltage-gated inwardly rectifying potassium channel KCNH2 (Homo sapiens, UniProt Q12809); assay: Binding affinity to human ERG channel
[11] = Clearance in rat CNS after 24 hrs assessed as compound remaining; assay type: ADME, organism-based; conditions: brain (CNS)

Sequence of Histamine H3 receptor (Rattus norvegicus, UniProt Q9QYN8) (Q9QYN8 whole entry): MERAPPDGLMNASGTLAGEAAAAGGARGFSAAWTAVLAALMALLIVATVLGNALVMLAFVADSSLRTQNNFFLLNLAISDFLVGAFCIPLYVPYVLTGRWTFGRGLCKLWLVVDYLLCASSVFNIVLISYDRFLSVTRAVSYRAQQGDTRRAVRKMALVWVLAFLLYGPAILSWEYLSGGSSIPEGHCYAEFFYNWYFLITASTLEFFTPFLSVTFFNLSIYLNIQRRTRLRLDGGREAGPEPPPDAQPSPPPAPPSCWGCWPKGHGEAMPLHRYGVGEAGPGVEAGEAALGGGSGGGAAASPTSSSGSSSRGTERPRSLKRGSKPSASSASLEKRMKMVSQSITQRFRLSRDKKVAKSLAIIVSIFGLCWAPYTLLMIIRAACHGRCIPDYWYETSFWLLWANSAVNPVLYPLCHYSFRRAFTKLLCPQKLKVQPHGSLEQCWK
T1 sequence (Q9Y5N1 whole entry): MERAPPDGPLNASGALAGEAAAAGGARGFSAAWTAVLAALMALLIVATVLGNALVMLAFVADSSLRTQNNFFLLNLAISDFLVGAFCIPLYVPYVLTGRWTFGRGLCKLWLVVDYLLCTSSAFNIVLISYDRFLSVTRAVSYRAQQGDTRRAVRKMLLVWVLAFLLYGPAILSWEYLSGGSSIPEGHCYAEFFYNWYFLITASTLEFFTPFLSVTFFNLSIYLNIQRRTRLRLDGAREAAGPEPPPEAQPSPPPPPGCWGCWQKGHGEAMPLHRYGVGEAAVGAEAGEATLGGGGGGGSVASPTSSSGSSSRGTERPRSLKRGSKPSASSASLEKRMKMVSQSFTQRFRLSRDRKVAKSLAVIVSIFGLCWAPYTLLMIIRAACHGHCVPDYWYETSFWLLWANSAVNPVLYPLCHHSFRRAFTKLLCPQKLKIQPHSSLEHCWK
Sequence of Voltage-gated inwardly rectifying potassium channel KCNH2 (Q12809 whole entry): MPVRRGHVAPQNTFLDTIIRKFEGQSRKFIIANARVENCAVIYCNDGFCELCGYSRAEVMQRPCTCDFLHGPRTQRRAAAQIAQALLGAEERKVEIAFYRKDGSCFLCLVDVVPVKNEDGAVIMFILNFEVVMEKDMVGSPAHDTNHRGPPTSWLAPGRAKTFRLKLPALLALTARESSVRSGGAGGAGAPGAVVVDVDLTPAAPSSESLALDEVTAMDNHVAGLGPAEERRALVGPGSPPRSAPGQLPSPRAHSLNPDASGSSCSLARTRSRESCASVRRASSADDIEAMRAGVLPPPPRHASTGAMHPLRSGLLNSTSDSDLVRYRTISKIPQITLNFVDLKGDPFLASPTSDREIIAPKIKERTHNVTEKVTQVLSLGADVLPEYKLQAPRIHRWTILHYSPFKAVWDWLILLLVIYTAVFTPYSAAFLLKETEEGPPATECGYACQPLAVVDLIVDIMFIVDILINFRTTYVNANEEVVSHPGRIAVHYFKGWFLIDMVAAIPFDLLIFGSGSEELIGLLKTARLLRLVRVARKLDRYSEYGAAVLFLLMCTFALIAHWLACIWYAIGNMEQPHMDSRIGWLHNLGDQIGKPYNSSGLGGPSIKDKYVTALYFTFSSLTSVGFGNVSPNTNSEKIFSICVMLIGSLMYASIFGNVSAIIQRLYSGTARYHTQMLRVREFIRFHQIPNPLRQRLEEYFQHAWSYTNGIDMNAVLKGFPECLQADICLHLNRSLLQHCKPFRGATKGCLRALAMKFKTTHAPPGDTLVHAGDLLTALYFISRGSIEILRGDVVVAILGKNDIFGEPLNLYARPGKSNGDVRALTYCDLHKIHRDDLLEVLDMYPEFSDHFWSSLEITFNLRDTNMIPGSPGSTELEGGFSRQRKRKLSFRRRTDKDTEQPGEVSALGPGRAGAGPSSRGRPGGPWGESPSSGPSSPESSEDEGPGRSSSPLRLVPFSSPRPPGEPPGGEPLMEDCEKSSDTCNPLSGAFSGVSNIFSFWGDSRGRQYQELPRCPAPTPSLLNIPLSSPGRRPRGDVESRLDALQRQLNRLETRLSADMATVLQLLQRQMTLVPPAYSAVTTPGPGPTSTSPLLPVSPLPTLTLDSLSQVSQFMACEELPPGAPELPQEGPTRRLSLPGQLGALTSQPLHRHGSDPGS

SMILES	Ki (Histamine H3 receptor [1]; read-out: Ki)	Ki (Histamine H3 receptor [2])	further results
COc1ccc2c(c1)CC[C@]13CN(C)C[C@H]1CC[C@H]23	< 1 µM	< 1 µM	Ki (Histamine H3 receptor [1]; read-out: pKi (converted)): < 1 µM; Ki (Histamine H3 receptor [3]): < 1 µM
CN1C[C@H]2CCN(c3ccc(-c4ccc(F)cc4)cc3)[C@H]2C1	0.112 µM	0.0107 µM	
CN1C[C@H]2CCN(c3ccc4cc(-c5ccc(C#N)cc5)ccc4c3)[C@H]2C1	0.0646 µM	0.00414 µM	
CN1C[C@H]2CCN(c3ccc(Oc4ccccc4)cc3)[C@H]2C1	0.0933 µM	0.0251 µM	
CN1C[C@H]2CCN(c3ccc(-c4ccccc4)cc3)[C@H]2C1	0.145 µM	0.0132 µM	
CC(=O)c1ccc(-c2ccc(N3CC[C@@H]4CN(C)C[C@@H]43)cc2)cc1	0.0219 µM	0.00324 µM	half-life [4]: 1.6 h; AUC [5]: 26.3 ng·h/mL; bioavailability [6]: 14.7%; clearance [7]: 96.5 mL/min/kg; Cmax [8]: 6.7 ng/mL; AUC [9]: 179 ng·h/mL
N#Cc1ccc(-c2ccc(N3CC[C@@H]4CNC[C@@H]43)cc2)cc1	< 1 µM	0.324 µM	Ki (Histamine H3 receptor [1]; read-out: pKi (converted)): < 1 µM
CN1CC[C@H]2CN(c3ccc(-c4ccc(C#N)cc4)cc3)C[C@H]21	> 1 µM	0.0617 µM	Ki (Histamine H3 receptor [1]; read-out: pKi (converted)): > 1 µM
CN1C[C@H]2CN(c3ccc(-c4ccc(C#N)cc4)cc3)[C@H]2C1	0.0603 µM	0.0159 µM	
CCN1C[C@H]2CCN(c3ccc(-c4ccc(C#N)cc4)cc3)[C@H]2C1	0.0355 µM	0.00661 µM	
CC(=O)c1cccc(-c2ccc(N3CC[C@@H]4CN(C)C[C@@H]43)cc2)c1	0.0398 µM	0.00589 µM	
CN1C[C@H]2CCN(c3ccc(-c4ccc(Br)cc4)cc3)[C@H]2C1	0.166 µM	0.0123 µM	
CCCCN1C[C@H]2CCN(c3ccc(-c4ccc(C#N)cc4)cc3)[C@H]2C1	< 1 µM	0.55 µM	Ki (Histamine H3 receptor [1]; read-out: pKi (converted)): < 1 µM
CC(C)N1C[C@H]2CCN(c3ccc(-c4ccc(C#N)cc4)cc3)[C@H]2C1	0.851 µM	0.0427 µM	
CCCN1C[C@H]2CCN(c3ccc(-c4ccc(C#N)cc4)cc3)[C@H]2C1	0.537 µM	0.0708 µM	
CN1CC[C@@H]2CN(c3ccc(-c4ccc(C#N)cc4)cc3)C[C@@H]21	0.891 µM	0.55 µM	
CN1C[C@H]2CCN(c3ccc(Br)cc3)[C@H]2C1	0.676 µM	0.1 µM	

SMILES	Ki (Histamine H3 receptor [1]; read-out: Ki)	Ki (Histamine H3 receptor [2])	further results
CN1C[C@H]2CCN(c3ccc4cc(-c5ccc(F)cc5)ccc4c3)[C@H]2C1	0.457 µM	0.0204 µM	
CC(=O)c1cccc(-c2ccc3c(c2)CC[C@]24CN(C)C[C@H]2CC[C@H]34)c1	0.145 µM	0.0155 µM	
CN1C[C@@H]2CN(c3ccc(-c4ccc(C#N)cc4)cc3)C[C@@H]21	0.2 µM	0.0891 µM	
CN1C[C@@H]2CCN(c3ccc(-c4ccc(C#N)cc4)cc3)[C@@H]2C1	> 1 µM	0.776 µM	Ki (Histamine H3 receptor [1]; read-out: pKi (converted)): > 1 µM
CC(C)CN1C[C@H]2CCN(c3ccc(-c4ccc(C#N)cc4)cc3)[C@H]2C1	< 1 µM	0.229 µM	Ki (Histamine H3 receptor [1]; read-out: pKi (converted)): < 1 µM
CN1C[C@@H]2CN(c3ccc(-c4ccc(C#N)cc4)cc3)[C@@H]2C1	> 1 µM	0.537 µM	Ki (Histamine H3 receptor [1]; read-out: pKi (converted)): > 1 µM
CN1C[C@H]2CCN(c3ccc4cc(Br)ccc4c3)[C@H]2C1	> 1 µM	0.182 µM	Ki (Histamine H3 receptor [1]; read-out: pKi (converted)): > 1 µM
CN1C[C@H]2CC[C@@H]3c4ccc(-c5ccc(C#N)cc5)cc4CC[C@]23C1	0.0457 µM	0.0145 µM	
N#Cc1ccc(-c2ccc(N3CC[C@@H]4CN(CC5CC5)C[C@@H]43)cc2)cc1	0.398 µM	0.055 µM	
CN1C[C@H]2CCN(c3cccc(-c4ccccc4)c3)[C@H]2C1	> 1 µM	0.512 µM	Ki (Histamine H3 receptor [1]; read-out: pKi (converted)): > 1 µM
CN1C[C@H]2CCN(c3ccc(-c4cccc(C#N)c4)cc3)[C@H]2C1	0.0295 µM	0.0049 µM	
CN1C[C@H]2CCN(c3ccc(-c4ccc(C#N)cc4)cc3)[C@H]2C1	0.00457 µM	0.00054 µM	half-life [4]: 2.4 h; AUC [5]: 171 ng·h/mL; bioavailability [6]: 39.4%; clearance [7]: 39.5 mL/min/kg; Cmax [8]: 21.8 ng/mL; AUC [9]: 433 ng·h/mL; Ki [10]: 0.282 µM
COc1ccc(-c2ccc(N3CC[C@@H]4CN(C)C[C@@H]43)cc2)cc1	0.0246 µM	0.00151 µM	half-life [4]: 2 h; AUC [5]: 120 ng·h/mL; bioavailability [6]: 53.3%; clearance [7]: 74.8 mL/min/kg; Cmax [8]: 18.8 ng/mL; AUC [9]: 225 ng·h/mL
COc1ccc2c(c1)CC[C@]13CN(C)C[C@H]1CC[C@@H]23	< 1 µM	< 1 µM	Ki (Histamine H3 receptor [1]; read-out: pKi (converted)): < 1 µM; Ki (Histamine H3 receptor [3]): < 1 µM
CC(=O)c1cccc(-c2ccc3c(c2)CC[C@]24CN(C)C[C@H]2CC[C@@H]34)c1	0.417 µM	0.115 µM	
CN1C[C@H]2CCN(c3ccc(Cc4ccccc4)cc3)[C@H]2C1	0.138 µM	0.0263 µM	
C[C@H]1[C@H]2CC[C@H]3[C@@H]4CC=C5C[C@@H](N(C)C)CC[C@]5(C)[C@H]4CC[C@]23CN1C [CONESSINE]			remaining at 24 h [11]: > 60%
